Results reported in patent US20260109715A1, “IMIDAZOPYRIDINE DERIVATIVES WITH BICYCLIC STRUCTURE” (PUBLIC UNIVERSITY CORPORATION YOKOHAMA CITY UNIVERSITY, priority 2022, published 2026).
Counter-ions that a name gives are not always drawn. Like-named read-outs stand apart in the source and are kept apart here.

What was measured:
human SMG1 enzyme = human SMG1 enzyme (Homo sapiens, UniProt Q96Q15); assay: Measurement of SMG1 kinase activity (ADP-Glo Kinase Assay); type: biochemical; conditions: purified human SMG1 enzyme 5 nM, Upf1 peptide substrate, ATP 4 μM; qAC50 synonymous with IC50; read-out: Test Example 1 ADP-Glo IC50
Sequence of human SMG1 enzyme (Q96Q15 whole entry): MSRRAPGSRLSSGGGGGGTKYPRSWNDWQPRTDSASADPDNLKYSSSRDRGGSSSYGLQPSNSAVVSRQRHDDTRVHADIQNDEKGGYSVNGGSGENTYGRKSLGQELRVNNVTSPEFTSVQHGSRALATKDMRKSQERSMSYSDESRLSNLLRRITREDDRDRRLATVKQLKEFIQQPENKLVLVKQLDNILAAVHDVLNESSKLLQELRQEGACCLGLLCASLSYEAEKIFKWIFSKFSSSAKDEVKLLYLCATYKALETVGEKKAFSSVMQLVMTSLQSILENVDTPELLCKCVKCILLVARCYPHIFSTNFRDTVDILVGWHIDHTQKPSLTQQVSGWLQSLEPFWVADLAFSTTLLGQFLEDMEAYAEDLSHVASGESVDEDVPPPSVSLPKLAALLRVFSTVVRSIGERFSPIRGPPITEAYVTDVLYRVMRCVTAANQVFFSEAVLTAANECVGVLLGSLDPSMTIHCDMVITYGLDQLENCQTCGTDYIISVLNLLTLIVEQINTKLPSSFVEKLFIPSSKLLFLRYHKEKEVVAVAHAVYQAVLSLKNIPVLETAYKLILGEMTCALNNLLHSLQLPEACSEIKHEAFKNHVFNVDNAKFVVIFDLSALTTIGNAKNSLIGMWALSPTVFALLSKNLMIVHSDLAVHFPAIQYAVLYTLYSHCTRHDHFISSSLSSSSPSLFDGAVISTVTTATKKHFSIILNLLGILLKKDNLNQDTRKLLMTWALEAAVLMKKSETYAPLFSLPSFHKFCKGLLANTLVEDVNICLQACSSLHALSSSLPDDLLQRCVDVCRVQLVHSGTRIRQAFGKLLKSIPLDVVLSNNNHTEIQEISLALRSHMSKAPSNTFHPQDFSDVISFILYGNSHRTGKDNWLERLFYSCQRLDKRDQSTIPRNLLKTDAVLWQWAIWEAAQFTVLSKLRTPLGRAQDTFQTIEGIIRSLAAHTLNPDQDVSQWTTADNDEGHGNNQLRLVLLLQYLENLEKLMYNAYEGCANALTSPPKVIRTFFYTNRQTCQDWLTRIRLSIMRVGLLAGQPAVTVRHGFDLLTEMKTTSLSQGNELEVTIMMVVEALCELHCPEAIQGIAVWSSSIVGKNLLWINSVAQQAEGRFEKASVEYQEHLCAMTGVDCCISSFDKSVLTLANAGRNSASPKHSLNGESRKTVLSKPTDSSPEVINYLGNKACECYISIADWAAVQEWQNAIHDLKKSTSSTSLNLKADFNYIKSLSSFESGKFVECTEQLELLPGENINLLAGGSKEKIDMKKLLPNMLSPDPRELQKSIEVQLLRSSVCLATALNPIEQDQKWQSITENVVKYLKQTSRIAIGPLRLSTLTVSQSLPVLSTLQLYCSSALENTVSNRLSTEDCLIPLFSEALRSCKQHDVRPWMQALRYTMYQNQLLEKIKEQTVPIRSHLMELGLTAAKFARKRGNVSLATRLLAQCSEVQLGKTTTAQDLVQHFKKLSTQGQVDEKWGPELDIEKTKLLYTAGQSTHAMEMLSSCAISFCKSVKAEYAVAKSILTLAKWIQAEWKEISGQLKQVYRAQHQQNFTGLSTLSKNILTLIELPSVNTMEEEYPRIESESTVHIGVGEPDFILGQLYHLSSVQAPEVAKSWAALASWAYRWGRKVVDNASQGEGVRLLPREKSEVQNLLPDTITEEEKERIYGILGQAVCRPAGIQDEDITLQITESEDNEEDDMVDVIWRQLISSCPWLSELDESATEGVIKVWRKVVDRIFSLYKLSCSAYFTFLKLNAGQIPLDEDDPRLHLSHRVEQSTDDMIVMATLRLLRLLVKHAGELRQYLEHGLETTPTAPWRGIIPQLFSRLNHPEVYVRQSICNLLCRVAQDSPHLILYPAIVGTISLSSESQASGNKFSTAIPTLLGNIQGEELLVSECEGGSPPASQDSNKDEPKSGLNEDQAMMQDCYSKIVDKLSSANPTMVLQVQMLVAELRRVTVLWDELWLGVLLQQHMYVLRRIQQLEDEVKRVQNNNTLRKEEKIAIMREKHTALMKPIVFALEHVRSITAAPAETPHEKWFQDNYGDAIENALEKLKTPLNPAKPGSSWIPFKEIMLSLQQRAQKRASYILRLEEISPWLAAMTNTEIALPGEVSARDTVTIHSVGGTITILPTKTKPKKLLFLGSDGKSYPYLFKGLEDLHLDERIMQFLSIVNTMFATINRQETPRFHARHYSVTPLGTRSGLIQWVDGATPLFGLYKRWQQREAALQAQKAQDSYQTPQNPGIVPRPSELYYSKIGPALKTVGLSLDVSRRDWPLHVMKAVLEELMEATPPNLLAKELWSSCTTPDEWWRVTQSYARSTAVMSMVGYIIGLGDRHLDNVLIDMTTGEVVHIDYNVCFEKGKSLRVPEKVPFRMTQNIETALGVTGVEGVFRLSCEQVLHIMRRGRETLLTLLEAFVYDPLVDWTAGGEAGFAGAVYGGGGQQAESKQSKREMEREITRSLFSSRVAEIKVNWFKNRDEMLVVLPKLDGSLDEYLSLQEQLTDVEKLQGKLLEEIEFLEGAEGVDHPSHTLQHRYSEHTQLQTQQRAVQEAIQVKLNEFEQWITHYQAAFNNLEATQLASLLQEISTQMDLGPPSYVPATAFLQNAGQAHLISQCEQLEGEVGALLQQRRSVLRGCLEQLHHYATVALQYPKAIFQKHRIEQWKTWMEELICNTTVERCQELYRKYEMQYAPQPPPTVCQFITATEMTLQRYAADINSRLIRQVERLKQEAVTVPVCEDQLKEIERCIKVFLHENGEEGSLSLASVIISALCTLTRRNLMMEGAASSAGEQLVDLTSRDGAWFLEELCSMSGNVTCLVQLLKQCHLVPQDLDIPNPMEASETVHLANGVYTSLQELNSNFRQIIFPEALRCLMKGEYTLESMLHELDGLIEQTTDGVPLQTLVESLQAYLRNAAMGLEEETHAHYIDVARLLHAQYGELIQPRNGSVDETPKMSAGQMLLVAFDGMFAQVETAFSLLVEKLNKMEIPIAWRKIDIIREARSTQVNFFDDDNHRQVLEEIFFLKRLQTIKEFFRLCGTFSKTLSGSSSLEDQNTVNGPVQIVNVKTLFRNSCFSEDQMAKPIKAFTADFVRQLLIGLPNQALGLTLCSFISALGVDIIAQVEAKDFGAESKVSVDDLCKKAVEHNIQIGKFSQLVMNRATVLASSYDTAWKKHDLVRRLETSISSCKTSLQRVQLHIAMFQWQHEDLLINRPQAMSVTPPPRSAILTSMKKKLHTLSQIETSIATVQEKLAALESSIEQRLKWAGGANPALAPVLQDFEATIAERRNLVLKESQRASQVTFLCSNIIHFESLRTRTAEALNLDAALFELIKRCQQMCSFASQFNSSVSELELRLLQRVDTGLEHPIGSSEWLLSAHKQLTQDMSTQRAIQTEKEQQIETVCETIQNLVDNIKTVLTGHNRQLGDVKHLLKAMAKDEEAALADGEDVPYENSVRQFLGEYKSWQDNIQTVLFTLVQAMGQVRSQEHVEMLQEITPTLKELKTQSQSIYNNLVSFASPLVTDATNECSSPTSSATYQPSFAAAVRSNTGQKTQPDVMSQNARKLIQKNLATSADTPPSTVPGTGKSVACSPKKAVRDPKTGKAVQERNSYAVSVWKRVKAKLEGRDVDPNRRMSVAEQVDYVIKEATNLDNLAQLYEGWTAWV
Source text: The SMG1 kinase inhibitory activity of a compound of the present invention or a pharmaceutically acceptable salt thereof can be measured, for example, by the method described below. Using purified human SMG1 protein and a substrate peptide as materials, the kinase activity can be measured by the ADP-Glo Kinase Assay; the SMG1 kinase inhibitory activity of a test substance can be evaluated by comparing the kinase activity in the presence and absence of the test substance.
The reaction was performed by the ADP-Glo Kinase Assay (Promega, catalog number V9102) using a 384-well plate under the conditions of an assay buffer (100 mM HEPES (pH 7.5), 50 mM NaCl, 10 mM MnCl2, 0.01% BSA, 0.1% Tween 20.5 mM TCEP). After incubating a test substance (DMSO solution; final DMSO concentration: 1%) and purified human SMG1 enzyme (Genes Dev. 2011 Jan. 15; 25(2): 153-164, produced by Daiichi Sankyo RD Novare Co., Ltd.; final concentration: 5 nM) at room temperature for 15 minutes, a substrate, Upf1 peptide (Biotin-(PEG8) QIDVALSQDSTYQG, produced by Eurofins genomics; final concentration: 8 μg/mL), and ATP (Promega: 4 μM) were added, and the mixture was reacted at room temperature for 60 minutes (see Non-Patent Literature R. Melero, et al., Structure Volume 22, Issue 8, 5 Aug. 2014, Pages 1105-1119 for the Upf1 peptide). ADP-Glo Reagent was added, and the mixture was reacted at room temperature for 40 minutes. Kinase Detection Reagent was added, and the mixture was reacted for another 30 minutes. The luminescence intensity was measured using EnVision (PerkinElmer).
The activity value (%) of the test substance-added well was calculated from the following formula, where the average luminescence intensity of the DMSO-added well was 0% and the average luminescence intensity of the SMG1 enzyme-free well was −100%.
The qAC50 (compound concentration showing 50% inhibition, synonymous with IC50) of the test substance was calculated using the activity value (%) at each concentration by Smart fit of Screener (Genedata). Smart fit is a general 4-parameter logistic regression model.

[1] = test system: Snhg1 transcript (NMD target gene) in EMT6 murine breast cancer cell line; assay: Measurement of NMD inhibitory activity in cells (increase in Snhg1 transcript, real-time PCR); set-up: species or system mouse; conditions: 6 hours treatment, concentration giving 1/2 of maximum Snhg1 fold change of positive control, read-out: Test Example 2 Cell-based Snhg1 EC50
Description: The NMD inhibitory activity of a compound of the present invention or a pharmaceutically acceptable salt thereof in cells can be measured, for example, by the method described below. EMT6 murine breast cancer cell line is treated with a test substance in vitro for 6 hours, and the increase in the transcript of Snhg1, a known NMD target gene, is quantified as an indicator of NMD inhibition. Quantification is performed by real-time PCR.
NMD inhibitory activity was measured by treating EMT6 murine breast cancer cell line (ATCC) with a test substance and quantifying the increase in the transcript of Snhg1, an NMD target gene (see F. Usui, et al., Scientific Reports volume 9, Article number: 1279 (2019) for the NMD target gene). That is, EMT6 cells were suspended in Waymouth's medium (Gibco, 15% FBS) and seeded in a 96-well plate at 2×10^4 cells/well. The cells were cultured for 1 day. The next day, serially diluted test substance (DMSO solution, final DMSO concentration: 2%) was added. After culturing for 6 hours, the supernatant was removed, and RNA was extracted using the RNeasy 96 kit (QIAGEN, 74182). After synthesizing cDNA using the High Capacity cDNA Reverse Transcription kit (Applied Biosystems, 4368813), the cDNA was mixed with PrimeTime Gene Expression Master Mix (Integrated DNA Technologies) and various probes, and gene expression was quantified using QuantStudio 6 Flex (Thermo Fisher Scientific Inc.). For the probe for the Snhg1 gene, which is an NMD target, Mm.PT.58.44039547 (FAM)(Integrated DNA Technologies) was used, and for the probe for the Tbp gene, which is an endogenous control, Mm00446973_m1 Tbp (VIC-PL) (Applied Biosystems) was used. The relative quantification of Snhg1 transcripts was calculated by the ΔΔCT method, using Thp as an endogenous control and setting the expression level of Snhg1 in untreated wells to 1.
A known NMD inhibitory compound (pyrimidine derivative Example 11i, Bioorg Med Chem Lett. 2012, 22(21), 6636-41) was used as a positive control drug for NMD inhibition. The NMD inhibitory activity of the test substance-added well was calculated as follows: the maximum fold change in Sngh1 expression in the positive control drug-added well relative to that in the untreated well was defined as the maximum NMD inhibitory activity, and the EC50 (compound concentration showing 50%/activity) of the test substance showing a ½-fold change was calculated by the GROWTH function of Microsoft Excel.

Row | Molecule | IC50 (human SMG1 enzyme) | EC50 [1] | EC50 ([1]; Mus musculus)
1 | 5-(2-chloro-6-fluorophenyl)-3-(6-chloro-1H-imidazo[4,5-c]pyridin-2-y1)-1,6-naphthyridin-2(1H)-one [Example 30] | 1.9 nM | 40 nM | –
2 | C[C@@H]1COCCN1c1nc(Cl)cc2[nH]c(-c3cc4c(C5(C)CC5)nccc4[nH]c3=O)nc12 [Example 2, 3-{6-chloro-4-[(3R)-3-methylmorpholin-4-yl]-1H-imidazo[4,5-c]pyridin-2-yl}-5-(1-methylcyclopropyl)-1,6-naphthyridin-2(1H)-one] | 4.9 nM | – | 94 nM
3 | C[C@@H]1COCCN1c1nc(Cl)cc2[nH]c(-c3cc4cnc(C5=CCCN(C)C5)cc4[nH]c3=O)nc12 [Example 3, 3-{6-chloro-4-[(3R)-3-methylmorpholin-4-yl]-1H-imidazo[4,5-c]pyridin-2-yl}-7-(1-methyl-1,2,5,6-tetrahydropyridin-3-yl)-1,6-naphthyridin-2(1H)-one] | 4.6 nM | – | 161 nM
4 | O=c1[nH]c2ccncc2cc1-c1nc2c(N3CCOC[C@H]3C(F)F)nc(Cl)cc2[nH]1 [Example 4, 3-{6-chloro-4-[(3S)-3-(difluoromethyl)morpholin-4-yl]-1H-imidazo[4,5-c]pyridin-2-yl}-1,6-naphthyridin-2(1H)-one] | 2.4 nM | – | 41 nM
5 | CN(c1nc(Cl)cc2[nH]c(-c3cc4cnccc4[nH]c3=O)nc12)[C@H]1CC[C@H](O)CC1 [Example 5, 3-{6-chloro-4-[(trans-4-hydroxycyclohexyl)(methyl)amino]-1H-imidazo[4,5-c]pyridin-2-yl}-1,6-naphthyridin-2(1H)-one] | 1.4 nM | – | 30 nM
6 | CC(C1CCOCC1)N(C)c1nc(Cl)cc2[nH]c(-c3cc4cnccc4[nH]c3=O)nc12 (stereo not shown) [Example 6, 3-(6-chloro-4-{methyl[1-(tetrahydro-2H-pyran-4-yl)ethyl]amino}-1H-imidazo[4,5-c]pyridin-2-yl)-1,6-naphthyridin-2(1H)-one] | 1.4 nM | – | 8.6 nM
7 | C[C@@H](Nc1nc(Cl)cc2[nH]c(-c3cc4c(N5CCN(C)CC5)nccc4[nH]c3=O)nc12)C(F)(F)F [Example 7, 3-(6-chloro-4-{[(2R)-1,1,1-trifluoropropan-2-yl]amino}-1H-imidazo[4,5-c]pyridin-2-yl)-5-(4-methylpiperazin-1-yl)-1,6-naphthyridin-2(1H)-one] | 6 nM | – | 95 nM
8 | NC1CN(c2nc(Cl)cc3[nH]c(-c4cc5cnccc5[nH]c4=O)nc23)CC(F)(F)C1 (stereo not shown) [Example 9, 3-[4-(5-amino-3,3-difluoropiperidin-1-yl)-6-chloro-1H-imidazo[4,5-c]pyridin-2-yl]-1,6-naphthyridin-2(1H)-one trifluoroacetate] | 4 nM | – | 122 nM
9 | Cc1cc2[nH]c(=O)c(-c3nc4c(C5CCOCC5)nc(Cl)cc4[nH]3)cc2c(C)n1 [Example 18, 3-[6-chloro-4-(tetrahydro-2H-pyran-4-yl)-1H-imidazo[4,5-c]pyridin-2-yl]-5,7-dimethyl-1,6-naphthyridin-2(1H)-one] | 0.57 nM | – | 43 nM
10 | CCCc1nc(Cl)cc2[nH]c(-c3cc4c(C)nccc4[nH]c3=O)nc12 [Example 20, 3-(6-chloro-4-propyl-1H-imidazo[4,5-c]pyridin-2-yl)-5-methyl-1,6-naphthyridin-2(1H)-one] | 2 nM | – | 13 nM
11 | Nc1cccc(-c2nc(Cl)cc3[nH]c(-c4cc5cnccc5[nH]c4=O)nc23)c1 [Example 24, 3-[4-(3-aminophenyl)-6-chloro-1H-imidazo[4,5-c]pyridin-2-yl]-1H-1,6-naphthyridin-2-one trifluoroacetate] | 2.2 nM | – | 76 nM
12 | O=c1[nH]c2ccncc2cc1-c1nc2c(-c3ccccc3F)nc(Cl)cc2[nH]1 [Example 25, 3-[6-chloro-4-(2-fluorophenyl)-1H-imidazo[4,5-c]pyridin-2-yl]-1,6-naphthyridin-2(1H)-one] | 1.8 nM | – | 39 nM
13 | CCc1nc(Cl)cc2[nH]c(-c3cc4c(-c5ccccc5F)nccc4[nH]c3=O)nc12 [Example 27, 3-(6-chloro-4-ethy1-1H-imidazo[4,5-c]pyridin-2-y1)-5-(2-fluorophenyl)-1,6-naphthyridin-2(1H)-one] | 1 nM | – | 2.8 nM
14 | Cc1c(OC(F)F)cccc1-c1nccc2[nH]c(=O)c(-c3nc4cnc(Cl)cc4[nH]3)cc12 [Example 33, 3-(6-chloro-1H-imidazo[4,5-c]pyridin-2-y1)-5-[3-(difluoromethoxy)-2-methylpheny1]-1,6-naphthyridin-2(1H)-one] | 3 nM | – | 48 nM
15 | [2H]C([2H])([2H])Oc1ccccc1-c1nccc2[nH]c(=O)c(-c3nc4c(C5CC5)nc(Cl)cc4[nH]3)cc12 [Example 39, 3-(6-chloro-4-cyclopropyl-1H-imidazo[4,5-c]pyridin-2-yl)-5-{2-[(^2H3)methyloxy]phenyl}-1,6-naphthyridin-2(1H)-one] | 1.9 nM | – | 19 nM
16 | [2H]C([2H])([2H])Oc1ccccc1-c1nccc2[nH]c(=O)c(-c3nc4c(C(C)O)nc(Cl)cc4[nH]3)cc12 (stereo not shown) [Example 40, 3-[6-chloro-4-(1-hydroxyethyl)-1H-imidazo[4,5-c]pyridin-2-yl]-5-{2-[(^2H3)methyloxy]phenyl}-1,6-naphthyridin-2(1H)-one] | 0.53 nM | – | 11 nM
17 | [2H]C([2H])([2H])Oc1ccccc1-c1nccc2[nH]c(=O)c(-c3nc4c(C(C)F)nc(Cl)cc4[nH]3)cc12 (stereo not shown) [Example 41, 3-[6-chloro-4-(1-fluoroethyl)-1H-imidazo[4,5-c]pyridin-2-yl]-5-{2-[(^2H3)methyloxy]phenyl}-1,6-naphthyridin-2(1H)-one] | 1.1 nM | – | 4.8 nM
18 | [2H]C([2H])([2H])Oc1ccccc1-c1nccc2[nH]c(=O)c(-c3nc4c(CC(=O)NC(C)(C)C)nc(Cl)cc4[nH]3)cc12 [Example 42, N-tert-butyl-2-[6-chloro-2-(5-{2-[(^2H3)methyloxy]phenyl}-2-oxo-1,2-dihydro-1,6-naphthyridin-3-yl)-1H-imidazo[4,5-c]pyridin-4-yl]acetamide] | 2.6 nM | – | 124 nM
19 | [2H]C([2H])([2H])Oc1ccccc1-c1nccc2[nH]c(=O)c(-c3nc4c(N5CCNC(=O)C5)nc(Cl)cc4[nH]3)cc12 [Example 43, 3-[6-chloro-4-(3-oxopiperazin-1-yl)-1H-imidazo[4,5-c]pyridin-2-yl]-5-{2-[(^2H3)methyloxy]phenyl}-1,6-naphthyridin-2(1H)-one] | 0.97 nM | – | 24 nM
20 | [2H]C([2H])([2H])Oc1ccccc1-c1nccc2[nH]c(=O)c(-c3nc4c(N=S(C)(C)=O)nc(Cl)cc4[nH]3)cc12 [Example 44, 3-(6-chloro-4-{[dimethyl(oxide)-A6-sulfanylidene]amino}-1H-imidazo[4,5-c]pyridin-2-yl)-5-{2-[(^2H3)methyloxy]phenyl}-1,6-naphthyridin-2(1H)-one] | 0.5 nM | – | 54 nM
